From ChEMBL document CHEMBL1201862, “PubChem BioAssay data set” (2004)
Active and inactive are the calls of the source.

Experiments:
[1] = OVCAR-3 cell viability loss – plate reader, dry powder samples, PAX8 inhibitor project, dose response (AID 743044); format: functional, cell-based
[2] = viability loss in HEK293 cells – cell-based, plate reader, cherry-picked samples, cytotoxicity control, dose response (AID 743446); format: functional
[3] = toxicity toward HepG2 liver cells – cell-based, plate reader, cherry-pick, antagonist series, cytotoxicity control, dose response (AID 743416); format: functional
Paired box protein Pax-8 = Paired box protein Pax-8 (Homo sapiens, UniProt Q06710); assay: PAX8 transcriptional activity inhibition in RMG-I – RMG-I cells, luciferase, cherry-pick, dose response (AID 687027); format: functional, cell-based;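 note: luciferase reporter driven by Pax8 target thyroperoxidase promoter measured by SteadyGlo luminescence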
[4] = OVCAR8 cell viability loss – plate reader, dry powder samples, PAX8 project, dose response (AID 743197); format: functional, cell-based; details: OVCAR-8
[5] = A549 cell cytotoxicity, dose response, cytotoxicity control, plate reader, cherry-pick, antagonist series (AID 743412); format: functional, cell-based
[6] = blockade of melanocortin 4 receptor signaling – cell-based, plate reader, cherry pick, counter-screen for LGR2 antagonist project, dose response (AID 743444); format: functional;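 note: transfected HEK 293 cells stimulated with alpha-MSH peptide; potency of inhibitors of the alpha-MSH evoked signal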
[7] = general cell-killing toxicity readout – plate reader, dry powder samples, cytotoxicity control for PAX8 inhibitor project, dose response (AID 743021); format: functional, cell-based
[8] = blockers of bursicon-stimulated LGR2 cAMP reporter – cell-based, HEK293, CRE-luciferase reporter, cherry pick, set 2, dose response (AID 743343); format: functional;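 note: transfected cells were stimulated with diluted bursicon conditioned medium after compound addition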
Major prion protein = Major prion protein (Homo sapiens, UniProt P04156); format: functional, cell-based
[9] = target: T1, Hepatocyte nuclear factor 4-alpha (Homo sapiens, UniProt P41235); format: functional, cell-based;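 note: biochemical luminescence-based dose-response counterscreen measuring inhibition of HNF4 dimerization, run alongside a screen for blockers of ABHD5–perilipin-5 interaction; split luciferase complementation of HNF4 fusion proteins in cell lysate measuring dimerization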
T1 sequence (P41235 whole entry): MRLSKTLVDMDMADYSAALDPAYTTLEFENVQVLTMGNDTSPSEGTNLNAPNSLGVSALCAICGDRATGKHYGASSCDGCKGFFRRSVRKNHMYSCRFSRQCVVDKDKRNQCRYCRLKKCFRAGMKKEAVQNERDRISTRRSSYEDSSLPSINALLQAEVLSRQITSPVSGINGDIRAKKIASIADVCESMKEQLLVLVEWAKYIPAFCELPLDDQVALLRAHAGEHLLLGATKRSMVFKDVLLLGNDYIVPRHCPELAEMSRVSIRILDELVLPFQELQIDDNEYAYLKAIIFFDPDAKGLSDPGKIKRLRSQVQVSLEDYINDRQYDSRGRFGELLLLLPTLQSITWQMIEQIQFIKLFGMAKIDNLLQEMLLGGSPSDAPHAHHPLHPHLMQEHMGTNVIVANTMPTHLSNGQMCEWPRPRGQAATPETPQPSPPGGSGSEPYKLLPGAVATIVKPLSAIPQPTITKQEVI

[10] = target: Heat shock protein HSP 90-alpha (Homo sapiens, UniProt P07900); format: functional, organism-based
[11] = target: T2, Probable nicotinate-nucleotide adenylyltransferase (Staphylococcus aureus (strain N315), UniProt P65502); format: functional, Staphylococcus aureus subsp. aureus N315; details: read-out: IC50_Mean;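 for IC50 Mean: confirmatory dose-response retesting of NadD inhibitor hits first found in an ultra-high-throughput screen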
[12] = target: Glucose-6-phosphate 1-dehydrogenase (Homo sapiens, UniProt P11413); assay: inhibition of Homo sapiens G6PD, dose series – biochemical, fluorescence, selectivity assay for P. falciparum G6PD inhibitor project, dose response (AID 504792); format: functional
[13] = viability loss in HeLa cells – cytotoxicity control for MgcRacGAP inhibitor project, dose response (AID 624300); format: functional
[14] = target: T3, Rac GTPase-activating protein 1 (Homo sapiens, UniProt Q9H0H5); assay: blockers of MgcRacGAP-driven Rac1 GTP hydrolysis – biochemical, ADP Hunter fluorescence, primary and confirmatory, confirmation (AID 624330); format: functional
T3 sequence (Q9H0H5 whole entry): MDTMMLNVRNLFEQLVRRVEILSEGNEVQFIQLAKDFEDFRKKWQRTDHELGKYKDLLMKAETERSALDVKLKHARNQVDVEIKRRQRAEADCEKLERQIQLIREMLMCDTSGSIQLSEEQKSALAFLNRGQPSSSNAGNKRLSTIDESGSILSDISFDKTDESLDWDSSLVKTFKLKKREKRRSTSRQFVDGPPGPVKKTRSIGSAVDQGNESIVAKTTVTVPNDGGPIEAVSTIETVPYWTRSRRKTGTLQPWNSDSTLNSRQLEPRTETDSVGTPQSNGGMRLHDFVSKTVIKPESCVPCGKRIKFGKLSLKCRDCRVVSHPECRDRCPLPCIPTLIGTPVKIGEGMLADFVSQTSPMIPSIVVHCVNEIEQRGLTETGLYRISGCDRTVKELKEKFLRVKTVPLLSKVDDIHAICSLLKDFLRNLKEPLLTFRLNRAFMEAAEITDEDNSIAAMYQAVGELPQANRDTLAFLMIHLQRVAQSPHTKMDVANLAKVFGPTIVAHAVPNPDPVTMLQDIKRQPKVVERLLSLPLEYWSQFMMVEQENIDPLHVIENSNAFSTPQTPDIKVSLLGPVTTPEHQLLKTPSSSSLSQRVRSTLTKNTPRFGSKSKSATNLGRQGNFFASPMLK

[15] = target: T2, Probable nicotinate-nucleotide adenylyltransferase; format: functional, Staphylococcus aureus subsp. aureus N315
[16] = blockers of HIV-1 envelope-mediated cell-cell fusion – cherry-pick, dose response (AID 652057); format: functional, cell-based
[17] = HIV-1 AD8 envelope cell-cell fusion blockers – cherry-pick, dose response (AID 652062); format: functional, cell-based;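 note: luciferase signal from cell-cell fusion driven by HIV-1 clade B AD8 Env; potency is for inhibitors of fusion seen as a drop in luminescence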
[18] = off-target signal loss in HeLa-CEM21 co-culture – HeLa F-luc CTL cells, cherry-picked, counter-screen for HIV-1 Env fusion inhibitor project, dose response (AID 652040); format: functional, cell-based;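 note: potency for signal decrease marking cytotoxic or nonspecific inhibition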
[19] = blockers of HIV-1 ZM109 envelope-driven cell-cell fusion – HeLa effector, CEM target cells, luciferase, cherry-pick, dose response (AID 652058); format: functional, cell-based;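 note: luciferase signal from HIV-1 Env mediated cell-cell fusion of effector and target cells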
[20] = viability loss in CEM21 cells – cell-based, CellTiter-Glo luminescence, cherry-picked, cytotoxicity control for viral fusion inhibitor project, dose response (AID 652042); format: functional;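 note: potency for signal decrease meaning cytotoxicity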
Cytochrome P450 2C9 = Cytochrome P450 2C9 (Homo sapiens, UniProt P11712)
[21] = target: T4, DNA repair and recombination protein RAD54-like (Homo sapiens, UniProt Q92698); assay: RAD54 Holliday junction migration blockers – biochemical, fluorescence, cherry-picked samples, dose series, confirmation (AID 651657); format: functional
T4 sequence (Q92698 whole entry): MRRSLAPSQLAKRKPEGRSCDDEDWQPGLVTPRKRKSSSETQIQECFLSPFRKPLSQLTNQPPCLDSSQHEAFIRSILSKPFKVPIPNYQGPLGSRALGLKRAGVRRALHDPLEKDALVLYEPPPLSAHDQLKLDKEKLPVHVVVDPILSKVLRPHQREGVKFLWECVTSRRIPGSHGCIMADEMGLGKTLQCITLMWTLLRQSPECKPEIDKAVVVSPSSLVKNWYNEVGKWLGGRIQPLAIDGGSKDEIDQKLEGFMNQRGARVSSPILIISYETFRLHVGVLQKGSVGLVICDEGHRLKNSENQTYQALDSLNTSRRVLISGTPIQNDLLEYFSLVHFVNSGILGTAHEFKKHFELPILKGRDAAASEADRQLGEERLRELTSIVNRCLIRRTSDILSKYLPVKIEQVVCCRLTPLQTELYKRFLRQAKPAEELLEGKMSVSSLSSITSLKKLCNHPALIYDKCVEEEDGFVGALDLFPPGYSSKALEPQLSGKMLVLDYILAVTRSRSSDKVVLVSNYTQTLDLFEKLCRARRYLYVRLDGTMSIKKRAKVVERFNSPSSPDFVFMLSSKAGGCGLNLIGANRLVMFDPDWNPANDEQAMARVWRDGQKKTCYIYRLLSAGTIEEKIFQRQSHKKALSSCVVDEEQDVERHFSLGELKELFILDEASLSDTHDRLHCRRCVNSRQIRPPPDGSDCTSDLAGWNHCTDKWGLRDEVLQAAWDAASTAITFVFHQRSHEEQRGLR

[22] = target: T5, DNA repair protein RAD52 homolog (Homo sapiens, UniProt P43351); format: functional, biochemical
T5 sequence (P43351 whole entry): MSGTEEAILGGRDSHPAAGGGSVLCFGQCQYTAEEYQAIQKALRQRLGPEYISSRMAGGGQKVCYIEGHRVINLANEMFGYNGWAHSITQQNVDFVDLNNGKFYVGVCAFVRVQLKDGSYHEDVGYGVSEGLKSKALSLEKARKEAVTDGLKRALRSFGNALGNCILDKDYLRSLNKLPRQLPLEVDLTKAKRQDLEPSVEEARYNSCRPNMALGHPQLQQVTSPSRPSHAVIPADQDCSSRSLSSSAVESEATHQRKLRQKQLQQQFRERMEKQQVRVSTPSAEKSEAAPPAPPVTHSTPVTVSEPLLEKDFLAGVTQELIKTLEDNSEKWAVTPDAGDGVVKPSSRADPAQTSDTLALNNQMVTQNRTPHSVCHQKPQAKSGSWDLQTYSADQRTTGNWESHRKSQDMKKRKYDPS

Cytochrome P450 1A2 = target: T6, Cytochrome P450 1A2 (Homo sapiens, UniProt P05177);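 note: PubChem cytochrome P450 panel assay, CYP1A2 panel member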
T6 sequence (P05177 whole entry): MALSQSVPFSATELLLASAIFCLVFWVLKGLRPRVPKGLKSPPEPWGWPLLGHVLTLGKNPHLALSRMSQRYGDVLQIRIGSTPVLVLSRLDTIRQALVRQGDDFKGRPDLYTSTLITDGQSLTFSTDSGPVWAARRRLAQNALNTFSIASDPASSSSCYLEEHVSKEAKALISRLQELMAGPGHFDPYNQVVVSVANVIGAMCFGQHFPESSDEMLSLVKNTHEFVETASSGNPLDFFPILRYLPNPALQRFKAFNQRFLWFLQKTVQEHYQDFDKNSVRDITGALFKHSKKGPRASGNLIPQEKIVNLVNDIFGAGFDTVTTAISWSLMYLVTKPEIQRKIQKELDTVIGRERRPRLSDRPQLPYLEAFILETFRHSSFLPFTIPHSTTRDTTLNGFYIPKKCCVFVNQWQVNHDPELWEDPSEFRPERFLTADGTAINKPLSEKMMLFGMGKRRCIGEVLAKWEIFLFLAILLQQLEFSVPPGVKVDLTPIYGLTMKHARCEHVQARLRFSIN

Cytochrome P450 3A4 = Cytochrome P450 3A4 (Homo sapiens, UniProt P08684);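 note: CYP3A4 tested as one member of a cytochrome P450 panel screen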

With O=S(=O)(c1ccccc1F)N1CC[C@@H]2[C@H]1c1cc(-c3cccc(F)c3)ccc1N[C@@H]2CO the AC50 [1] was 49 µM (active), the AC50 [2] was 15.3 µM (active) and the AC50 [3] was 18.6 µM (active). The AC50 (Paired box protein Pax-8) was 4.09 µM (active), the AC50 [4] was 15.6 µM (active) and the AC50 [5] was 8.1 µM (active). The AC50 [6] was 11.2 µM (active), the AC50 [7] was 5.52 µM (active) and the AC50 [8] was 11.1 µM (active).
With O=C(C1=C(O)C(=O)N(CCN2CCOCC2)C1c1cccc(Br)c1)c1cc2ccccc2o1 (configuration not stated) the IC50 (Major prion protein) was 3.22 µM (active) and the IC50 (cells) was > 138 µM (inactive).
For CCCCCNC(=O)C(c1ccc(C(F)(F)F)cc1)n1c(=O)c(-c2ccco2)nc2ccccc21 (configuration not stated), the IC50 [9] was 2.85 µM (active).
For COC(=O)CSc1ncnc2scc(-c3ccccc3)c12, the IC50 (Major prion protein) was 5.59 µM (active) and the IC50 (cells) was > 138 µM (inactive).
For O=[N+]([O-])c1cccc(SSc2cccc([N+](=O)[O-])c2)c1, the AC50 [10] was 4.25 µM (active), the IC50 [11] was 3.73 µM (active) and the IC50 [12] was > 80 µM (inactive). For the same compound, the CC50 [13] was 100 µM (active), the IC50 [14] was 53.9 µM (active) and the IC50 [15] was 1.62 µM (active).
In the case of C/C=C/c1ccc(OCCOCCNCc2ccccc2)c(OC)c1, the AC50 [16] is reported as 3.51 µM (active), the AC50 [17] is reported as 12.2 µM (active) and the AC50 [18] is reported as 4.93 µM (active). The AC50 [19] was 5.73 µM (active) and the AC50 [20] was 33.7 µM (active).
In the case of Cn1nc(C(F)(F)F)c(/C=N/OC(=O)c2ccccc2Cl)c1SCc1ccccc1Cl, the IC50 (Major prion protein) is reported as 4.68 µM (active) and the IC50 (cells) is reported as > 138 µM (inactive).
With Cc1ccc(NC(=O)c2ccc(-c3nn(C)c(=O)c4ccccc34)cc2)cc1 the AC50 [16] was 24.9 µM (active), the AC50 [17] was 6.49 µM (active) and the AC50 [18] was 16.8 µM (active). The AC50 [19] was 3.31 µM (active) and the AC50 [20] was 57.8 µM (active).
With CCOC(=O)c1c(NC(=O)c2ccc(S(=O)(=O)N3CCOCC3)cc2)sc2c1CCN(C)C2 the AC50 (Cytochrome P450 2C9) was 14.1 µM (inconclusive), the AC50 [21] was 15.3 µM (active) and the AC50 [22] was 11.6 µM (active). The AC50 (Cytochrome P450 1A2) was 12.6 µM (inconclusive) and the AC50 (Cytochrome P450 3A4) was “inconclusive”.
